This passage reports IC50 results from patent publication US9278981B2, “Compounds and compositions for inhibiting the activity of ABL1, ABL2 and BCR-ABL1” (Novartis AG, priority 2012, dated 2016).

This assay deals with ABL1 (64-515) (Homo sapiens (Human), UniProt P00519). Kind of assay: Radio ABL1 (64-515) assay (radiometric filter-binding). In kind it is biochemical.
ABL1 (64-515), sequence (P00519 64-515): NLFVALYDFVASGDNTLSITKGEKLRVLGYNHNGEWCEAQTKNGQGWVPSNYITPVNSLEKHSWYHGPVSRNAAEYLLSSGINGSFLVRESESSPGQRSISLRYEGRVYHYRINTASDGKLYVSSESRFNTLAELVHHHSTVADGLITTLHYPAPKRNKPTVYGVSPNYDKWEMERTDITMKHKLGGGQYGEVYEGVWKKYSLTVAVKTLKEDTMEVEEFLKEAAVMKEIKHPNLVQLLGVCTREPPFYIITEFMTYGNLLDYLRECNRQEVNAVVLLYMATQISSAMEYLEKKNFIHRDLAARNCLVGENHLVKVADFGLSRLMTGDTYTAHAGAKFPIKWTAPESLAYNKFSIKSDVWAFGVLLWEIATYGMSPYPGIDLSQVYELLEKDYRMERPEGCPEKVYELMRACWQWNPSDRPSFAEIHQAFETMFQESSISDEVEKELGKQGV
The term IC50 denotes the concentration that inhibits the measured activity by half. For `O=C(Nc1ccc(OC(F)(F)F)cc1)c1cnc(N2CC[C@H](CO)C2)c(-c2cccnc2)c1` [Example 81, (S)-2-(3-(Hydroxymethyl)pyrrolidin-1-yl)-N-(4-(trifluoromethoxy)phenyl)-[3,3′-bipyridine]-5-carboxamide], the IC50 is under 3 nM.

`CCc1ccc(-c2cc(C(=O)Nc3ccc(OC(F)(F)F)cc3)cnc2N2CC[C@H](CO)C2)cn1` [Example 83, (S)-6′-Ethyl-2-(3-(hydroxymethyl)pyrrolidin-1-yl)-N-(4-(trifluoromethoxy)phenyl)-[3,3′-bipyridine]-5-carboxamide] registered an IC50 of 11 nM.

In turn, `O=C(Nc1ccc(OC(F)(F)F)cc1)c1cnc(N2CC[C@H](CO)C2)c(-c2ccc(C3CC3)nc2)c1` [Example 85, (S)-6′-Cyclopropyl-2-(3-(hydroxymethyl)pyrrolidin-1-yl)-N-(4-(trifluoromethoxy)phenyl)-[3,3′-bipyridine]-5-carboxamide] displayed an IC50 of 26 nM.

Turning to `N#Cc1ccc(-c2cc(C(=O)Nc3ccc(OC(F)(F)F)cc3)cnc2N2CC[C@H](CO)C2)cn1` [Example 91, (S)-6′-Cyano-2-(3-(hydroxymethyl)pyrrolidin-1-yl)-N-(4-(trifluoromethoxy)phenyl)-[3,3′-bipyridine]-5-carboxamide], the IC50 turned out to be 5 nM.

In the case of `N[C@@H]1CCN(c2ncc(C(=O)Nc3ccc(OC(F)(F)F)cc3)cc2-c2cccnc2)C1` [Example 94, (R)-2-(3-Aminopyrrolidin-1-yl)-N-(4-(trifluoromethoxy)phenyl)-[3,3′-bipyridine]-5-carboxamide], the IC50 is under 3 nM.

In turn, `Cc1ccc(-c2cc(C(=O)Nc3ccc(OC(F)(F)F)cc3)cnc2N2CC[C@@H](N)C2)cn1` [Example 95, (R)-2-(3-Aminopyrrolidin-1-yl)-6′-methyl-N-(4-(trifluoromethoxy)phenyl)-[3,3′-bipyridine]-5-carboxamide] had an IC50 of under 3 nM.

`N[C@H]1CCN(c2ncc(C(=O)Nc3ccc(OC(F)(F)F)cc3)cc2-c2cccnc2)C1` [Example 97, (S)-2-(3-Aminopyrrolidin-1-yl)-N-(4-(trifluoromethoxy)phenyl)-[3,3′-bipyridine]-5-carboxamide] gave a half-maximal inhibitory concentration (IC50) of under 3 nM.

`CN[C@@H]1CCN(c2ncc(C(=O)Nc3ccc(OC(F)(F)F)cc3)cc2-c2cncnc2)C1` [Example 99, (R)-6-(3-(Methylamino)pyrrolidin-1-yl)-5-(pyrimidin-5-yl)-N-(4-(trifluoromethoxy)phenyl)nicotinamide] yielded an IC50 of under 3 nM.

With `CN[C@@H]1CCN(c2ncc(C(=O)Nc3ccc(OC(F)(F)F)cc3)cc2-c2cccnc2)C1` [Example 100, (R)-2-(3-(Methylamino)pyrrolidin-1-yl)-N-(4-(trifluoromethoxy)phenyl)-[3,3′-bipyridine]-5-carboxamide], the IC50 is under 3 nM.

As to `CN[C@@H]1CCN(c2ncc(C(=O)Nc3ccc(OC(F)(F)F)cc3)cc2-c2ccc(C)nc2)C1` [Example 101, (R)-6′-Methyl-2-(3-(methylamino)pyrrolidin-1-yl)-N-(4-(trifluoromethoxy)phenyl)-[3,3′-bipyridine]-5-carboxamide], the half-maximal inhibitory concentration (IC50) is under 3 nM.

The molecule `CN[C@H]1CCN(c2ncc(C(=O)Nc3ccc(OC(F)(F)F)cc3)cc2-c2cccnc2)C1` [Example 103, (S)-2-(3-(Methylamino)pyrrolidin-1-yl)-N-(4-(trifluoromethoxy)phenyl)-[3,3′-bipyridine]-5-carboxamide] came in with an IC50 of under 3 nM.

Molecule `CN[C@H]1CCN(c2ncc(C(=O)Nc3ccc(OC(F)(F)F)cc3)cc2-c2ccc(C)nc2)C1` [Example 104, (S)-6′-Methyl-2-(3-(methylamino)pyrrolidin-1-yl)-N-(4-(trifluoromethoxy)phenyl)-[3,3′-bipyridine]-5-carboxamide] showed an IC50 of 3 nM.

With `NC[C@H]1CCN(c2ncc(C(=O)Nc3ccc(OC(F)(F)F)cc3)cc2-c2cccnc2)C1` [Example 106, (R)-2-(3-(Aminomethyl)pyrrolidin-1-yl)-N-(4-(trifluoromethoxy)phenyl)-[3,3′-bipyridine]-5-carboxamide], the IC50 is under 3 nM.

The molecule `Cc1ccc(-c2cc(C(=O)Nc3ccc(OC(F)(F)F)cc3)cnc2N2CC[C@H](CN)C2)cn1` [Example 107, (R)-2-(3-(Aminomethyl)pyrrolidin-1-yl)-6′-methyl-N-(4-(trifluoromethoxy)phenyl)-[3,3′-bipyridine]-5-carboxamide] had an IC50 of under 3 nM.

For the molecule `NC[C@@H]1CCN(c2ncc(C(=O)Nc3ccc(OC(F)(F)F)cc3)cc2-c2cccnc2)C1` [Example 109, (S)-2-(3-(Aminomethyl)pyrrolidin-1-yl)-N-(4-(trifluoromethoxy)phenyl)-[3,3′-bipyridine]-5-carboxamide], the half-inhibitory concentration (IC50) is under 3 nM.

Molecule `Cc1ccc(-c2cc(C(=O)Nc3ccc(OC(F)(F)F)cc3)cnc2N2CC[C@@H](CN)C2)cn1` [Example 110, (S)-2-(3-(Aminomethyl)pyrrolidin-1-yl)-6′-methyl-N-(4-(trifluoromethoxy)phenyl)-[3,3′-bipyridine]-5-carboxamide] registered an IC50 of 5 nM.

`COc1ccc(-c2cc(C(=O)Nc3ccc(OC(F)(F)F)cc3)cnc2N2CC[C@@H](CN)C2)cn1` [Example 111, (S)-2-(3-(Aminomethyl)pyrrolidin-1-yl)-6′-methoxy-N-(4-(trifluoromethoxy)phenyl)-[3,3′-bipyridine]-5-carboxamide]: the IC50 was under 3 nM.

For `CN(C)C1CCN(c2ncc(C(=O)Nc3ccc(OC(F)(F)F)cc3)cc2-c2cncnc2)C1` (stereo not drawn) [Example 112, 6-(3-(Dimethylamino)pyrrolidin-1-yl)-5-(pyrimidin-5-yl)-N-(4-(trifluoromethoxy)phenyl)nicotinamide], the IC50 is under 3 nM.

For the molecule `CC(C)(O)C1CCN(c2ncc(C(=O)Nc3ccc(OC(F)(F)F)cc3)cc2-c2cccnc2)C1` (stereo not drawn) [Example 114, 2-(3-(2-Hydroxypropan-2-yl)pyrrolidin-1-yl)-N-(4-(trifluoromethoxy)phenyl)-[3,3′-bipyridine]-5-carboxamide], the IC50 stood at 6 nM.

The molecule `Cc1ccc(-c2cc(C(=O)Nc3ccc(OC(F)(F)F)cc3)cnc2N2CCC(C(C)(C)O)C2)cn1` (stereo not drawn) [Example 115, 2-(3-(2-Hydroxypropan-2-yl)pyrrolidin-1-yl)-6′-methyl-N-(4-(trifluoromethoxy)phenyl)-[3,3′-bipyridine]-5-carboxamide] yielded an IC50 of 16 nM.

`CC1(O)CN(c2ncc(C(=O)Nc3ccc(OC(F)(F)F)cc3)cc2-c2cnc(Cl)c(F)c2)C1` [Example 134, 6′-Chloro-5′-fluoro-2-(3-hydroxy-3-methylazetidin-1-yl)-N-(4-(trifluoromethoxy)phenyl)-[3,3′-bipyridine]-5-carboxamide] gave an IC50 of 10 nM.

`Cc1ncc(-c2cc(C(=O)Nc3ccc(OC(F)(F)F)cc3)cnc2N2CC(CO)C2)cn1` [Example 136, 6-(3-(Hydroxymethyl)azetidin-1-yl)-5-(2-methylpyrimidin-5-yl)-N-(4-(trifluoromethoxy)phenyl)nicotinamide] registered an IC50 of under 3 nM.

`O=C(Nc1ccc(OC(F)(F)F)cc1)c1cnc(N2CC(CO)C2)c(-c2cnc(Cl)c(F)c2)c1` [Example 141, 6′-Chloro-5′-fluoro-2-(3-(hydroxymethyl)azetidin-1-yl)-N-(4-(trifluoromethoxy)phenyl)-[3,3′-bipyridine]-5-carboxamide] displayed an IC50 of 6 nM.

On to `O=C(Nc1ccc(OC(F)(F)F)cc1)c1cnc(N2CCCNCC2)c(-c2cccnc2)c1` [Example 145, 2-(1,4-Diazepan-1-yl)-N-(4-(trifluoromethoxy)phenyl)-[3,3′-bipyridine]-5-carboxamide], for which the IC50 came out at 4 nM.

As for `CN1CCCN(c2ncc(C(=O)Nc3ccc(OC(F)(F)F)cc3)cc2-c2cccnc2)CC1` [Example 146, 2-(4-Methyl-1,4-diazepan-1-yl)-N-(4-(trifluoromethoxy)phenyl)-[3,3′-bipyridine]-5-carboxamide], the IC50 was under 3 nM.

Consider `Cc1ccc(-c2cc(C(=O)Nc3ccc(OC(F)(F)F)cc3)cnc2N2CCCN(C)CC2)cn1` [Example 147, 6′-Methyl-2-(4-methyl-1,4-diazepan-1-yl)-N-(4-(trifluoromethoxy)phenyl)-[3,3′-bipyridine]-5-carboxamide], for which the IC50 was under 3 nM.

`Cc1ccc(-c2cc(C(=O)Nc3ccc(OC(F)(F)F)cc3)cnc2N(C)CCO)cn1` [Example 153, 2-((2-Hydroxyethyl)(methyl)amino)-6′-methyl-N-(4-(trifluoromethoxy)phenyl)-[3,3′-bipyridine]-5-carboxamide] registered an IC50 of under 3 nM.

`O=C(Nc1ccc(OC(F)(F)F)cc1)c1cnc(NCCO)c(-c2cccnc2)c1` [Example 159, 2-((2-Hydroxyethyl)amino)-N-(4-(trifluoromethoxy)phenyl)-[3,3′-bipyridine]-5-carboxamide] showed an IC50 of under 3 nM.

For the molecule `Cc1ccc(-c2cc(C(=O)Nc3ccc(OC(F)(F)F)cc3)cnc2NCCO)cn1` [Example 160, 2-((2-Hydroxyethyl)amino)-6′-methyl-N-(4-(trifluoromethoxy)phenyl)-[3,3′-bipyridine]-5-carboxamide], the IC50 is under 3 nM.

Turning to `Cc1ccc(-c2cc(C(=O)Nc3ccc(OC(F)(F)F)cc3)cnc2NCCCO)cn1` [Example 163, 2-((3-Hydroxypropyl)amino)-6′-methyl-N-(4-(trifluoromethoxy)phenyl)-[3,3′-bipyridine]-5-carboxamide], the IC50 was under 3 nM.

The molecule `COc1ccc(-c2cc(C(=O)Nc3ccc(OC(F)(F)F)cc3)cnc2NCCCO)cn1` [Example 164, 2-((3-Hydroxypropyl)amino)-6′-methoxy-N-(4-(trifluoromethoxy)phenyl)-[3,3′-bipyridine]-5-carboxamide] came in with an IC50 of 12 nM.

In turn, `CN(CCCO)c1ncc(C(=O)Nc2ccc(OC(F)(F)F)cc2)cc1-c1cncnc1` [Example 165, 6-((3-Hydroxypropyl)(methyl)amino)-5-(pyrimidin-5-yl)-N-(4-(trifluoromethoxy)phenyl)nicotinamide] came in with an IC50 of under 3 nM.

In turn, `Cc1ccc(-c2cc(C(=O)Nc3ccc(OC(F)(F)F)cc3)cnc2N(C)CCCO)cn1` [Example 167, 2-((3-Hydroxypropyl)(methyl)amino)-6′-methyl-N-(4-(trifluoromethoxy)phenyl)-[3,3′-bipyridine]-5-carboxamide] gave a 50% inhibitory concentration (IC50) of 30 nM.
